Patent US20200215099A1, “NON-ANTICOAGULANT SULFATED OR SULFONATED POLYSACCHARIDES” (Baxalta Incorporated, priority 2012, published 2020)

Columns and labels:
[1] = tested on: FVIII-inhibited human whole blood; experiment: Rotation thromboelastometry (ROTEM); conditions: for Activity: normal blood 100, FVIII-inh. blood 0
Experimental: NASPs (0.4-11 μg/mL) were studied in fresh citrated human whole blood by rotation thromboelastometry (ROTEM), an assay that allows continuous visco-elastic assessment of whole blood clot formation and firmness. Blood was incubated with anti-human FVIII plasma raised in goat (Baxter Bioscience, Austria) at 50 BU/mL to simulate hemophilic conditions. Clotting was triggered with 0.044 pM tissue factor (TF) (PRP reagent, Thrombinoscope BV) in the presence of 40 μg/mL CTI (Haematologic Technologies Inc., Essex Junction, Vt., USA). Then 300 μL of the pre-warmed (37° C.) FVIII-inhibited blood was recalcified with 20 μL of a 0.2 M CaCl2 solution. Clot formation was monitored using a ROTEM instrument (Pentapharm Munich, Germany) at 37° C. The final assay concentration of rTF was 44 fM. The ROTEM recording was started immediately and measured for at least 120 min. Each blood sample was analyzed in two independent measurements.
The thromboelastographic parameters of clotting time (CT), clot formation time (CFT) and maximum clot firmness (MCF) were recorded in accordance with the manufacturer's instructions. The first derivative of the thromboelastogram data is plotted to obtain a graph of velocity (mm/s) against time (s). From this graph, the maximum velocity (maxV) and the time at which the maximum velocity is reached (maxV-t) are also determined.

[2] = Pharmacokinetics after intravenous administration; format: in vivo, CD rats
Experimental: The preparations were either unfractionated (average MW of 63 kD) or fractionated by a filter method (lots A and B with an average MW of 12 and 14 kD, respectively). The substances were prepared in a physiological saline solution and injected at 5 mL/kg. Each group consisted of three animals. Blood sample were collected in the presence of citrate (ratio 1:9) before dosing and 5, 30 min, 1, 3, 6, and 10 h after the dosing. Platelet-poor plasma was prepared by two centrifugation steps at 3000 rpm. The plasma samples were analyzed for by a liquid-chromatography-mass spectroscopy, a substance-specific method for S-6-CI.

[3] = tested on: normal human plasma; experiment: Activated partial thromboplastin time assay (aPTT); format: biochemical; conditions: 50% increase clotting time / CAT EC50
Experimental: The aPTT assay was performed to study anticoagulant activities of NASP. In brief, 50 μL of thawed normal human plasma pool (George King Biomedical, Overland Park, Kans.) was mixed with 5 μL of NASP sample (0-60 μg/mL final plasma concentration). NASPs were diluted in imidazole buffer (3.4 g/L imidazole; 5.85 g/L NaCl, pH 7.4) containing 1% albumin (Baxter, Austria). After addition of 50 μL aPTT reagent (STA APTT, Roche) the samples were incubated for 4 min at 37° C. Clotting was initiated by 50 μL of 25 mM CaCl2 solution (Baxter, Austria) and recorded for up to 5 min. All pipetting steps and clotting time measurements were carried out with an ACL Pro Elite (Instrumentation Laboratory, Bedford, Mass.) instrument. Samples were run in duplicate.
For data analysis, clotting time is plotted against the NASP concentration. Concentrations where the clotting time is 50% increased over the normal plasma control are determined using a linear curve fit.

[4] = tested on: contact pathway; experiment: CAT in normal plasma with and without CTI; format: biochemical; conditions: normal plasma, 1 pM hTF, 4 μM PL, ±41 μg/mL CTI

sulfated 6-carboxy-icodextrin gave a CFT ([1]; +0.41 μg/ml) of 388 s, a CT ([1]; +0.41 μg/ml) of 1542 s and an MCF ([1]; +0.41 μg/ml) of 62 mm. It also gave an Activity ([1]; +0.41 μg/ml) of 108%, a CFT ([1]; +1.23 μg/ml) of 172 s and a CT ([1]; +1.23 μg/ml) of 1078 s. The MCF ([1]; +1.23 μg/ml) was 63.5 mm, the Activity ([1]; +1.23 μg/ml) was 129% and the CFT ([1]; +3.7 μg/ml) was 223 s. It also gave a CT ([1]; +3.7 μg/ml) of 1152 s, an MCF ([1]; +3.7 μg/ml) of 63 mm and an Activity ([1]; +3.7 μg/ml) of 125%. It also gave a CFT ([1]; +11.1 μg/ml) of 934 s, a CT ([1]; +11.1 μg/ml) of 2526 s and an Activity ([1]; +11.1 μg/ml) of 63%. For the same substance, the “restoration of coagulation (in words)” value ([1]; ROTEM, 0.044 pM TF) was “restores coagulation in FVIII-inhibited whole blood”, the “in vivo recovery (plasma concentration)” value ([2]; 5 min after i.v. dosing of 5 mg/kg) was 28 to 44 µg/mL and the half-life ([2]; i.v. 5 mg/kg, estimated from early time points) was 30 to 45 min. For the same substance, the “Ratio aPTT/CAT” value [3] was “very good” and the “concentration activating the contact pathway” value [4] was over 33000 ng/mL.
